# Experimental data: ChEMBL document CHEMBL1201862, “PubChem BioAssay data set” (2004)
#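 48-hour exposure; five concentrations; linearly interpolated endpoints. Here, GI50 denotes the concentration required for 50% inhibition of growth.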 Active and inactive are the calls of the source. Rule as the data show it: active = GI50 up to about 1.1 µM and inactive = higher.
# Tests used:
# Experiment in all cases: NCI anticancer screen, dose series, 48 h
# [1] = test system: COLO 205
# [2] = test system: IGROV-1
# [3] = test system: U-251
# [4] = test system: HCT-116
# [5] = test system: UACC-257
# [6] = test system: OVCAR-3
# [7] = test system: HOP-62
# [8] = test system: ACHN
# [9] = test system: MOLT-4
# [10] = test system: SK-MEL-2
# [11] = test system: HT-29
# [12] = test system: A549
# [13] = test system: SNB-75
# [14] = test system: A498
# [15] = test system: SK-OV-3
# [16] = test system: UO-31
# [17] = test system: OVCAR-4
# [18] = test system: SK-MEL-28
Compound,GI50 [1],GI50 [2],GI50 [3],GI50 [4],GI50 [5],GI50 [6],GI50 [7],GI50 [8],GI50 [9],GI50 [10],GI50 [11],GI50 [12],GI50 [13],GI50 [14],GI50 [15],GI50 [16],GI50 [17],GI50 [18]
Cn1c(=O)nc2n(-c3cc(Cl)ccc3Cl)c3ccccc3nc-2c1=O,1.82 µM (inactive),13 µM (inactive),6.4 µM (inactive),4.33 µM (inactive),2.18 µM (inactive),2.95 µM (inactive),12 µM (inactive),0.906 µM (active),8.02 µM (inactive),5.62 µM (inactive),1.54 µM (inactive),4 µM (inactive),11.2 µM (inactive),18.6 µM (inactive),28 µM (inactive),13.6 µM (inactive),4.33 µM (inactive),
Cc1ccc2c(CC(=O)O)cc(=O)oc2c1,> 100 µM (inactive),> 100 µM (inactive),> 100 µM (inactive),> 100 µM (inactive),,> 100 µM (inactive),> 100 µM (inactive),> 100 µM (inactive),> 100 µM (inactive),> 100 µM (inactive),> 100 µM (inactive),> 100 µM (inactive),44.9 µM (inactive),> 100 µM (inactive),> 100 µM (inactive),,> 100 µM (inactive),> 100 µM (inactive)
CC1CCC[P+](Cc2ccccc2)(c2ccccc2)CC1 (stereo not drawn),40.4 µM (inactive),39 µM (inactive),77.4 µM (inactive),,,,> 100 µM (inactive),> 100 µM (inactive),78.5 µM (inactive),21.6 µM (inactive),,> 100 µM (inactive),40.3 µM (inactive),> 100 µM (inactive),> 100 µM (inactive),> 100 µM (inactive),15.8 µM (inactive),41.2 µM (inactive)
COc1cc2c(c(OC)c1OC)-c1ccc(SC)c(=O)cc1C(CC(=O)Oc1cccc([N+](=O)[O-])c1)C2 (stereo not drawn),0.489 µM (active),3.44 µM (inactive),0.794 µM (active),0.384 µM (active),2.89 µM (inactive),0.276 µM (active),,0.891 µM (active),1.15 µM (inactive),0.713 µM (active),0.362 µM (active),1.16 µM (inactive),0.268 µM (active),0.0277 µM (active),0.0736 µM (active),2.76 µM (inactive),5.66 µM (inactive),0.546 µM (active)
CC(=O)N(C)c1ccc2ncccc2c1[N+](=O)[O-],,> 100 µM (inactive),,> 100 µM (inactive),> 100 µM (inactive),> 100 µM (inactive),> 100 µM (inactive),> 100 µM (inactive),> 100 µM (inactive),> 100 µM (inactive),> 100 µM (inactive),> 100 µM (inactive),> 100 µM (inactive),> 100 µM (inactive),,> 100 µM (inactive),> 100 µM (inactive),> 100 µM (inactive)
CCC1C2C=CC(CC2)N1S(=O)(=O)c1ccc(C)cc1 (stereo not drawn),21.7 µM (inactive),,,30.9 µM (inactive),20.9 µM (inactive),33.7 µM (inactive),27.6 µM (inactive),35.9 µM (inactive),32.6 µM (inactive),14 µM (inactive),24.4 µM (inactive),28.2 µM (inactive),> 10 µM (inactive),33.9 µM (inactive),26.1 µM (inactive),12.9 µM (inactive),31.8 µM (inactive),
CC(/C=C/c1ccccc1)=N\N=C(C)\C=C\c1ccccc1,> 10 µM (inactive),> 100 µM (inactive),> 100 µM (inactive),> 100 µM (inactive),> 100 µM (inactive),> 100 µM (inactive),> 100 µM (inactive),> 100 µM (inactive),> 100 µM (inactive),> 100 µM (inactive),> 100 µM (inactive),> 100 µM (inactive),42.2 µM (inactive),> 100 µM (inactive),> 100 µM (inactive),,> 100 µM (inactive),> 100 µM (inactive)
COP(=O)(CC(=O)C1OC(C)(C)OC1C(O)COCc1ccccc1)OC (stereo not drawn),> 100 µM (inactive),> 100 µM (inactive),> 100 µM (inactive),> 100 µM (inactive),> 100 µM (inactive),> 100 µM (inactive),> 100 µM (inactive),> 100 µM (inactive),> 100 µM (inactive),> 100 µM (inactive),> 100 µM (inactive),> 100 µM (inactive),> 100 µM (inactive),> 100 µM (inactive),,> 100 µM (inactive),> 100 µM (inactive),> 100 µM (inactive)
COc1cc(OC)c(OC)cc1/C=N/NC(=O)N/N=C/c1cc(OC)c(OC)cc1OC,> 100 µM (inactive),> 100 µM (inactive),> 100 µM (inactive),> 100 µM (inactive),> 100 µM (inactive),> 100 µM (inactive),,> 100 µM (inactive),> 100 µM (inactive),> 100 µM (inactive),> 100 µM (inactive),> 100 µM (inactive),15.8 µM (inactive),> 100 µM (inactive),> 100 µM (inactive),> 100 µM (inactive),> 100 µM (inactive),> 100 µM (inactive)
CCN(CC)c1ccc2c(c1)Oc1ccc(N(CC)CC)cc1C21Oc2ccccc2-c2c1c1ccccc1n2CC (stereo not drawn),2.45 µM (inactive),,1.68 µM (inactive),1.05 µM (active),2.89 µM (inactive),1.25 µM (inactive),,1.32 µM (inactive),2.88 µM (inactive),,1.22 µM (inactive),3.18 µM (inactive),> 100 µM (inactive),8.34 µM (inactive),4.07 µM (inactive),1.43 µM (inactive),3.58 µM (inactive),2 µM (inactive)
CCN(CC)/[N+]([O-])=N/OCC(C)O (stereo not drawn),,> 100 µM (inactive),> 100 µM (inactive),> 100 µM (inactive),> 100 µM (inactive),> 100 µM (inactive),> 100 µM (inactive),> 100 µM (inactive),> 100 µM (inactive),> 100 µM (inactive),> 100 µM (inactive),> 100 µM (inactive),> 100 µM (inactive),> 100 µM (inactive),> 100 µM (inactive),> 100 µM (inactive),,> 100 µM (inactive)
CCCN(CCCC(NC(C)=O)C(=O)NCc1ccccc1)C(=O)N(C)N=O (stereo not drawn),> 100 µM (inactive),> 100 µM (inactive),> 100 µM (inactive),> 100 µM (inactive),> 100 µM (inactive),> 100 µM (inactive),> 100 µM (inactive),> 100 µM (inactive),77.6 µM (inactive),> 100 µM (inactive),> 100 µM (inactive),> 100 µM (inactive),41.3 µM (inactive),> 100 µM (inactive),> 100 µM (inactive),,> 100 µM (inactive),> 100 µM (inactive)
